{"source": "patent US20190070128A1", "about": "“USE OF CANNABIDIVARIN IN THE TREATMENT OF AUTISM SPECTRUM DISORDER, ASSOCIATED DISORDERS AND SCHIZOPHRENIA” (GW Research Limited, priority 2016, published 2019)", "key": {"hCB1": {"molecular_target": "hCB1 (Homo sapiens, UniProt P21554)", "sequence (P21554 whole entry)": "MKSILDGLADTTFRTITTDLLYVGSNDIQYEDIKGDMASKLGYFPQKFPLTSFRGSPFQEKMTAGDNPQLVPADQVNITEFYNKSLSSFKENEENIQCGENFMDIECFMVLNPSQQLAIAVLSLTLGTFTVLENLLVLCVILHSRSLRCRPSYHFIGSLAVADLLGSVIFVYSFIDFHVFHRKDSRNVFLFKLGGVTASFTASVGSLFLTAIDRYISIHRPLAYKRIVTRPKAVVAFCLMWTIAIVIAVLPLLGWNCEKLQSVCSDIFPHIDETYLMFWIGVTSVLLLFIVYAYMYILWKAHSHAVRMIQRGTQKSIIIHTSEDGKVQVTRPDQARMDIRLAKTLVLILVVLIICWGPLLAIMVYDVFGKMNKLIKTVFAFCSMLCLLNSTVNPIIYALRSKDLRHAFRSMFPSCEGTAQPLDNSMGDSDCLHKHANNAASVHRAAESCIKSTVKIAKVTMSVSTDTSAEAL", "conditions": "cited from earlier work"}, "VPA-exposed rats [1]": {"system": "VPA-exposed rats", "experiment": "sociability and preference for social novelty, 3-chamber apparatus, prenatal VPA model", "type": "in vivo, rat", "procedure": "(§1) Pregnant Sprague-Dawley rats (Charles River, Calco, Italy), received a single intraperitoneal injection of 500 mg/kg sodium valproate on the 12.5 day after conception, and control females were injected with physiological saline at the same time. Sodium valproate (Sigma Aldrich, Milan, IT) was dissolved in saline at a concentration of 250 mg/ml.\nCBDV was dissolved in ethanol, cremophor and saline (1:1:18). Symptomatic treatment with CBDV at doses of 0.2, 2, 20, and 100 mg/kg/day i.p. was performed starting from PND 34 (early adolescence) till 56 (early adulthood), both in male and female offspring of dams injected with VPA 500 mg/kg (or vehicle) on day 12.5 after conception. At PND 56, a series of behavioural tests was performed in order to assess the effect of chronic CBDV on sociability, social novelty, short-term memory, locomotion and stereotyped/repetitive behaviours.\nSociability and preference for social novelty: These behaviours were investigated in a 3-chamber apparatus which allows for the measurement of social approach and social preference. In brief, animals were placed into a novel arena (80 cm×31.5 cm) composed of three communicating chambers separated by Perspex walls with central openings allowing access to all chambers for 5 min.\nFollowing this acclimatisation period, animals were briefly confined to the central chamber while an unfamiliar rat confined in a small wire cage was placed in one of the outer chambers. An identical empty wire cage was placed in the other chamber. The unfamiliar rat was randomly assigned to either the right or left chamber of the arena. The test animal was then allowed to explore the arena/chambers for a further 5 min. Time spent engaging in investigatory behaviour with the rat was evaluated with the aid of Anymaze program (Ugo Basile, Italy) in order to examine social approach.\nTo investigate the preference for social novelty, a novel unfamiliar rat was then placed in the empty cage and the test animal was then allowed to explore the arena/chambers for a further 5 min. Time spent engaging in investigatory behaviour with the novel unfamiliar rat was evaluated with the aid of Anymaze program (Ugo Basile, Italy) in order to examine preference for social novelty."}, "VPA-exposed rats [2]": {"system": "VPA-exposed rats", "experiment": "short-term memory, novel object recognition test, prenatal VPA model", "type": "in vivo, rat", "procedure": "as §1\nCBDV was dissolved in ethanol, cremophor and saline (1:1:18). Symptomatic treatment with CBDV at doses of 0.2, 2, 20, and 100 mg/kg/day i.p. was performed starting from PND 34 (early adolescence) till 56 (early adulthood), both in male and female offspring of dams injected with VPA 500 mg/kg (or vehicle) on day 12.5 after conception. […]\nShort-term memory: The experimental apparatus used for the object recognition test was an open-field box (43×43×32 cm) made of Plexiglas, placed in a dimly illuminated room. The experiment was performed and analysed as previously described (Zamberletti et al, 2014). […]\nEach animal was placed in the arena and allowed to explore two identical previously unseen objects for 5 minutes (familiarization phase). […] During the test phase the time spent exploring the familiar object (Ef) and the new object (En) was videotaped and recorded separately by two observers blind to the treatment groups and the discrimination index was calculated as follows: [(En−Ef)/(En+Ef)]×100."}, "animal models of seizure": {"system": "animal models of seizure", "conditions": "in vivo; cited from earlier work"}, "Ube3am-/p+ (AS) mice [3]": {"system": "Ube3am-/p+ (AS) mice", "experiment": "tail suspension test in Angelman syndrome mice", "type": "in vivo, mouse", "conditions": "20 mg/kg i.p., vs AS vehicle", "procedure": "(§2) Heterozygous mice with maternal deficiency of Ube3A (Ube3am−/p+) and wild type (Ube3am+/p+) were purchased from The Jackson Laboratory (Jackson code: B6.12957-Ube3a tm1Alb/J) and maintained in a C57BL/6 background.\n(§3) Drugs were dissolved in 1:1:18 ethanol:cremophor:0.9% saline, for intraperitoneal (i.p.) administration. Drug treatment was performed daily for 35 days. CBDV was administered at 20 mg/kg.\nTail suspension: The tail suspension test assesses depressive-like behaviour in mice. Mice were individually suspended by the tail on a horizontal bar (50 cm from floor) using adhesive tape placed approximately 4 cm from the tip of the tail. The duration of immobility was recorded in seconds over a period of 6 minutes by a time recorder. Immobility time was defined as the absence of escape-oriented behaviour."}, "Ube3am-/p+ (AS) mice [4]": {"system": "Ube3am-/p+ (AS) mice", "experiment": "rotarod test in Angelman syndrome mice", "type": "in vivo, mouse", "conditions": "chronic treatment (30 days), 20 mg/kg i.p., vs AS vehicle", "procedure": "as §2, §3\nRotarod: The rotarod test assesses balance and motor coordination of mice. Mice have been measured for the time (in seconds) of equilibrium before falling on a rotary cylinder by a magnet that, activated from the fall of the mouse on the plate, allows to record the time of permanence on the cylinder. […] The animals were analysed by 2 separate tests at 1-h interval in the same day."}}, "data": [{"compound": "C=C(C)[C@@H]1CCC(C)=C[C@H]1c1c(O)cc(CCC)cc1O", "note": "[CBDV, Cannabidivarin]", "values": [{"measurement": "affinity for the CB1 receptor", "setting": "hCB1", "value": "low affinity"}, {"measurement": "deficit in social preference", "setting": "VPA-exposed rats [1]; 20 mg/kg and 100 mg/kg", "value": "reversed"}, {"measurement": "restoration of social novelty preference", "setting": "VPA-exposed rats [1]; 20 mg/kg/day i.p. PND 34-56, p<0.001 in males, p<0.01 in females", "value": "statistically significant effect"}, {"measurement": "reduction of preference index in VPA-CBDV animals compared to controls", "setting": "VPA-exposed rats [1]; VPA alone about 48%", "value": "about 13%"}, {"measurement": "impairment in sociability", "setting": "VPA-exposed rats [1]; all doses (0.2, 2, 20, 100 mg/kg/day i.p.)", "value": "significantly reduced"}, {"measurement": "short-term memory deficit (discrimination index)", "setting": "VPA-exposed rats [2]; male and female VPA rats, 2, 20 and 100 mg/kg", "value": "completely and significantly reversed"}, {"measurement": "recognition memory per se", "setting": "VPA-exposed rats [2]; vehicle-treated (non VPA) rats", "value": "without affecting"}, {"measurement": "effect in animal models of seizure", "setting": "animal models of seizure", "value": "effective"}, {"measurement": "duration of immobility time", "setting": "Ube3am-/p+ (AS) mice [3]", "value": "significantly reduced"}, {"measurement": "latency to fall", "setting": "Ube3am-/p+ (AS) mice [4]", "value": "reduced"}]}]}
